Laboratory results taken from the SangsterLogP compilation.

Test: method code SF-HPLC, from DOI: 10.1016/j.ejmech.2014.10.073, PMID: 25462263
Conditions: pH 7.4

| logD | SMILES |
| --- | --- |
| 2.9 | CCOc1cc(CC(=O)OCC(F)(F)F)c(F)cc1OCC(=O)N(CC)CC |
| 2.49 | CCN(CC)C(=O)COc1cc(F)c(CC(=O)OCC(F)(F)F)cc1OC |
| 2.19 | CCN(CC)C(=O)COc1cc(F)c(CC(=O)OC(C)C)cc1OC |
| 2.07 | CCOC(=O)Cc1cc(OC)c(OCC(=O)N(CC)CC)cc1F |
| 2.63 | CCCOC(=O)Cc1cc(F)c(OCC(=O)N(CC)CC)c(OCC)c1 |
| 2.36 | CCCOC(=O)Cc1cc(OC)c(OCC(=O)N(CC)CC)cc1F |
| 2.29 | CCOC(=O)Cc1ccc(OCC(=O)N(CC)CC)c(F)c1OC |
| 2.95 | CCCOc1cc(CC(=O)OC(C)C)c(F)cc1OCC(=O)N(CC)CC |
| 3.1 | CCOc1cc(CC(=O)OCCC(F)(F)F)cc(F)c1OCC(=O)N(CC)CC |
| 2.72 | CCCOC(=O)Cc1cc(OCC)c(OCC(=O)N(CC)CC)cc1F |
| 2.94 | CCN(CC)C(=O)COc1cc(F)c(CC(=O)OCCC(F)(F)F)cc1OC |
| 2.57 | CCOC(=O)Cc1cc(OCC)c(OCC(=O)N(CC)CC)cc1F |
| 2.78 | CCOc1cc(CC(=O)OCC(F)(F)F)cc(F)c1OCC(=O)N(CC)CC |
| 2.41 | CCOC(=O)Cc1cc(F)c(OCC(=O)N(CC)CC)c(OCC)c1 |
| 3.03 | CCOc1cc(CC(=O)OCC(C)C)c(F)cc1OCC(=O)N(CC)CC |
| 2.81 | CCN(CC)C(=O)COc1c(F)cc(CC(=O)OCCC(F)(F)F)cc1OC |
| 2.83 | CCN(CC)C(=O)COc1ccc(CC(=O)OCCC(F)(F)F)c(OC)c1F |
| 2.51 | CCN(CC)C(=O)COc1c(F)cc(CC(=O)OCC(F)(F)F)cc1OC |
| 2.59 | CCOc1cc(CC(=O)OC(C)C)c(F)cc1OCC(=O)N(CC)CC |
| 3.06 | CCOc1cc(CC(=O)OCCC(F)(F)F)c(F)cc1OCC(=O)N(CC)CC |
| 2.46 | CCOc1cc(CC(=O)OC(C)C)cc(F)c1OCC(=O)N(CC)CC |

| SMILES | logD |
| --- | --- |
| CCCOC(=O)Cc1ccc(OCC(=O)N(CC)CC)c(OC)c1 | 2.6 |
| CCCOC(=O)Cc1ccc(OCC(=O)N(CC)CC)c(OCC)c1 | 2.67 |
